Data from patent publication US9586961B2, “Homopiperazine derivatives as protein tyrosine kinase inhibitors and pharmaceutical use thereof” (LEO PHARMA A/S, priority 2010, dated 2017).

Tests used:
Assay type in all cases: biochemical
JAK3 = target: T1, JAK3 (Homo sapiens, UniProt P52333); test: JAK3 kinase assay (HTRF, inhibition of phosphorylation of a synthetic peptide); details: catalytic domain, His-tag; 2 μM ATP (Km); read-out: JAK3 kinase inhibitory activity (EC50)
T1 construct: All four purified enzymes contain only the catalytic domain; His (N); purchased Carna Biosciences, Inc; host or cells: baculovirus expression system
Summary of the method: (§1)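 Baculovirus-expressed catalytic domains (GST-JAK1 aa 850-1154, GST-TYK2 aa 871-1187, His-JAK2, His-JAK3) phosphorylate 1 μM biotin-TK peptide 20-30 min at RT in 50 mM Hepes pH 7.0 with ATP at Km: JAK1 7 μM, JAK2 4 μM, JAK3 2 μM, TYK2 13 μM; 0.75% DMSO. Stopped with EDTA, HTRF read overnight.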

JAK2 = target: T2, JAK2 (Homo sapiens, UniProt O60674); test: JAK2 kinase assay (HTRF, inhibition of phosphorylation of a synthetic peptide); details: catalytic domain, His-tag; 4 μM ATP (Km); read-out: JAK2 kinase inhibitory activity (EC50)
T2 construct: All four purified enzymes contain only the catalytic domain; His (N); purchased Carna Biosciences, Inc; host or cells: baculovirus expression system
Summary of the method: as §1

TYK2 = target: T3, TYK2 (Homo sapiens, UniProt P29597); test: TYK2 kinase assay (HTRF, inhibition of phosphorylation of a synthetic peptide); details: catalytic domain aa 871-1187, GST-tag; 13 μM ATP (Km); read-out: TYK2 kinase inhibitory activity (EC50)
T3 construct: JAK1 (aa 850-1154) and TYK2 (aa 871-1187) are expressed with an N-terminally fused GST-tag; GST (N); purchased Carna Biosciences, Inc; host or cells: baculovirus expression system
T3 sequence (P29597 871-1187): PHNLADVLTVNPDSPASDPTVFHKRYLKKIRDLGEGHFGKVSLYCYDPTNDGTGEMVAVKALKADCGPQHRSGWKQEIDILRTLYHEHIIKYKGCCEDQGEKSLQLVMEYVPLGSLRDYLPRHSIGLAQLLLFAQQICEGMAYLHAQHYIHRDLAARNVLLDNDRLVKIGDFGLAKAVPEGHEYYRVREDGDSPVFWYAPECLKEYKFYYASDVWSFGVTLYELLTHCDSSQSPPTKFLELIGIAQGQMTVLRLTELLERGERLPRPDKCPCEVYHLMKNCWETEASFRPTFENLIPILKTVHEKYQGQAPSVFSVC
Protocol: JAK1, JAK2, JAK3 and TYK2 Kinase Assays:
Human baculovirus-expressed JAK1, 2, 3 and TYK2 were purchased from Carna Biosciences, Inc. All four purified enzymes contain only the catalytic domain. JAK1 (aa 850-1154) and TYK2 (aa 871-1187) are expressed with an N-terminally fused GST-tag, and JAK2 and JAK3 with an N-terminally fused His-tag. Inhibition of phosphorylation of a synthetic peptide was measured in an HTRF-based assay using the TK substrate-Biotin from the CisbioHTRFKinEASE TK kit. First, 2 μl of TK solution (TK substrate-biotin in kinase buffer [1× enzymatic buffer from HTRFKinEASE TK kit, 1 mM DTT]) is added to a plate containing 1 μl prediluted compound (final assay concentration DMSO: 0.75%). Then, 5 μl kinase-ATP mix (prepared in kinase buffer) is added to the wells and the plates are incubated at RT for 20-30 min. For all four kinases a concentration of ATP that corresponded to the Km for ATP was used. The final concentrations of buffers, substrate, kinase and ATP were: JAK1: 50 mMHepes buffer pH 7.0, 0.01% BSA, 10 mM MgCl2, 1 mM DTT, 7 μM ATP, 50 nMSEB, 1 μM TK Substrate-Biotin and 5 ng JAK1; JAK2: 50 mM Hepes buffer pH 7.0, 0.01% BSA, 5 mM MgCl2, 1 mM DTT, 4 μM ATP, 1 μM TK Substrate-Biotin and 0.1 ng JAK2; JAK3: 50 mMHepes buffer pH 7.0, 0.01% BSA, 5 mM MgCl2, 1 mM DTT, 2 μM ATP, 1 μM TK Substrate-Biotin and 0.3 ng JAK3; TYK2: 50 mMHepes buffer pH 7.0, 0.01% BSA, 5 mM MgCl2, 1 mM DTT, 13 μM ATP, 50 nMSEB, 1 μM TK Substrate-Biotin and 0.8 ng TYK2. Thereafter, the kinase reaction is stopped by adding 4 μl detection mix (final concentrations: 50 mM Hepes buffer pH 7.0, 0.01% BSA, 0.8 M KF, 20 mM EDTA, 42 nM Streptavidin-XL665 and 1:400 STKAbCryptate) and the plates are incubated overnight in the dark. The HTRF signal is read using an Envision plate reader.

JAK1 = target: T4, JAK1 (Homo sapiens, UniProt P23458); test: JAK1 kinase assay (HTRF, inhibition of phosphorylation of a synthetic peptide); details: catalytic domain aa 850-1154, GST-tag; 7 μM ATP (Km); read-out: JAK1 kinase inhibitory activity (EC50)
T4 construct: JAK1 (aa 850-1154) and TYK2 (aa 871-1187) are expressed with an N-terminally fused GST-tag; GST (N); purchased Carna Biosciences, Inc; host or cells: baculovirus expression system
Summary of the method: as §1

T2 sequence (O60674 849-1124 limits assumed): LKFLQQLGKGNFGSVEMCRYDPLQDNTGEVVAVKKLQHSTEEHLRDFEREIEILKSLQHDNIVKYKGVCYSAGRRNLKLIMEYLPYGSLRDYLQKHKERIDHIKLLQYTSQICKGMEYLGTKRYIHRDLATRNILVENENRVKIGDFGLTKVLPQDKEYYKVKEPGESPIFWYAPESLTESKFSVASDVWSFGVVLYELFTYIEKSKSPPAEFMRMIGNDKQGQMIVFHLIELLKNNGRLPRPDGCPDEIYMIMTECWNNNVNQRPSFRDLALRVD
T4 sequence (P23458 850-1154): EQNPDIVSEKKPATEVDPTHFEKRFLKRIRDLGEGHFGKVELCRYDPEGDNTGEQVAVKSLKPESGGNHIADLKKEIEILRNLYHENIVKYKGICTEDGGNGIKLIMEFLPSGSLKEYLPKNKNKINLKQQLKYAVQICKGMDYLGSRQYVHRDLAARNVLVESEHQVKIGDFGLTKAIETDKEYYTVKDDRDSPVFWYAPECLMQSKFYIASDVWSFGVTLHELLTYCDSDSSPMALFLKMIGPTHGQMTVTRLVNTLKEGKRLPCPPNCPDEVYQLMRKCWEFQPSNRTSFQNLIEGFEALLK
T1 sequence (P52333 822-1111 limits assumed): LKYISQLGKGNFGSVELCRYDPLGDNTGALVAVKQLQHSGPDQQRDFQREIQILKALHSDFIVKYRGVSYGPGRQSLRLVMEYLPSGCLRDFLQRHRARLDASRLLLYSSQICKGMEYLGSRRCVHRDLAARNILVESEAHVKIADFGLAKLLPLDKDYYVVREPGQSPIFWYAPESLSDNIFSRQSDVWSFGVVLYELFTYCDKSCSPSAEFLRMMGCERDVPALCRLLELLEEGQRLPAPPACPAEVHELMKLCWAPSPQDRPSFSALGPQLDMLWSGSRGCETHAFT

Row | EC50 (JAK3) | EC50 (JAK2) | EC50 (TYK2) | EC50 (JAK1) | Compound
1 | 100 to 1000 nM | < 100 nM | 100 to 1000 nM | < 100 nM | O=C(c1cnsn1)N1CCCN(c2ncnc3[nH]ccc23)CC12CC2 [Example 203, [5-(7H-pyrrolo[2,3-d]pyrimidin-4-yl)-5,9-diazaspiro[2.6]nonan-9-yl]-(1,2,5-thiadiazol-3-yl)methanone]
2 | > 1000 nM | < 100 nM | > 1000 nM | 100 to 1000 nM | N#Cc1ccc(C(F)(F)C(=O)N2CCN(c3ncnc4[nH]ccc34)CC3(CC3)C2)cc1 [Example 13, 4-[1,1-difluoro-2-oxo-2-[5-(7H-pyrrolo[2,3-d]pyrimidin-4-yl)-5,8-diazaspiro[2.6]nonan-8-yl]ethyl]benzonitrile]
3 | 100 to 1000 nM | < 100 nM | 100 to 1000 nM | < 100 nM | O=C(Cc1ccc(Cl)cc1)N1CCN(c2ncnc3[nH]ccc23)CC2(CC2)C1 [Example 125, 2-(4-chlorophenyl)-1-[5-(7H-pyrrolo[2,3-d]pyrimidin-4-yl)-5,8-diazaspiro[2.6]nonan-8-yl]ethanone]
4 | > 1000 nM | 100 to 1000 nM | > 1000 nM | 100 to 1000 nM | O=C(c1cc2ccccc2s1)N1CCN(c2ncnc3[nH]ccc23)CCC12CC2 [Example 46, benzothiophen-2-yl-[6-(7H-pyrrolo[2,3-d]pyrimidin-4-yl)-6,9-diazaspiro[2.6]nonan-9-yl]methanone]
5 | 100 to 1000 nM | 100 to 1000 nM | > 1000 nM | 100 to 1000 nM | O=C(c1ccc(S(=O)(=O)NCCc2cccs2)cc1)N1CCN(c2ncnc3[nH]ccc23)CC2(CC2)C1 [Example 50, 4-[5-(7H-pyrrolo[2,3-d]pyrimidin-4-yl)-5,8-diazaspiro[2.6]nonane-8-carbonyl]-N-[2-(2-thienyl)ethyl]benzenesulfonamide]
6 | > 1000 nM | > 1000 nM | > 1000 nM | > 1000 nM | CC1CN(c2ncnc3[nH]ccc23)CC2(CC2)CN1C(=O)Nc1ccccc1 (centres unmarked) [Example 99, 7-methyl-N-phenyl-5-(7H-pyrrolo[2,3-d]pyrimidin-4-yl)-5,8-diazaspiro[2.6]nonane-8-carboxamide]
7 | > 1000 nM | > 1000 nM | > 1000 nM | > 1000 nM | CC1CN(c2ncnc3[nH]ccc23)CC2(CC2)CN1 (centres unmarked) [Example 293]
8 | > 1000 nM | > 1000 nM | > 1000 nM | > 1000 nM | Cc1ccc(S(=O)(=O)N2CC3(CC3)CN(c3ncnc4[nH]ccc34)CC2C)cc1 (centres unmarked) [Example 98, 4-[7-methyl-8-(p-tolylsulfonyl)-5,8-diazaspiro[2.6]nonan-5-yl]-7H-pyrrolo[2,3-d]pyrimidine]
9 | 100 to 1000 nM | < 100 nM | 100 to 1000 nM | < 100 nM | N#Cc1csc(C(=O)N2CCCN(c3ncnc4[nH]ccc34)CC23CC3)c1 [Example 119, 5-[5-(7H-pyrrolo[2,3-d]pyrimidin-4-yl)-5,9-diazaspiro[2.6]nonane-9-carbonyl]thiophene-3-carbonitrile]
10 | > 1000 nM | > 1000 nM | > 1000 nM | > 1000 nM | Nc1nc(N2CCN(Cc3ccccc3)CC3(CC3)C2)c2cc[nH]c2n1 [Example 68, 4-(5-benzyl-5,8-diazaspiro[2.6]nonan-8-yl)-7H-pyrrolo[2,3-d]pyrimidin-2-amine]
11 | < 100 nM | < 100 nM | 100 to 1000 nM | < 100 nM | NS(=O)(=O)c1ccc(CC(=O)N2CCN(c3ncnc4[nH]ccc34)CC3(CC3)C2)s1 [Example 76, 5-[2-oxo-2-[5-(7H-pyrrolo[2,3-d]pyrimidin-4-yl)-5,8-diazaspiro[2.6]nonan-8-yl]ethyl]thiophene-2-sulfonamide]
12 | > 1000 nM | 100 to 1000 nM |  | > 1000 nM | O=C(N1CCN(c2ncnc3[nH]ccc23)CC2(CC2)C1)C1(c2ccccc2)CC1 [Example 260, (1-phenylcyclopropyl)-[5-(7H-pyrrolo[2,3-d]pyrimidin-4-yl)-5,8-diazaspiro[2.6]nonan-8-yl]methanone]
13 | 100 to 1000 nM | 100 to 1000 nM |  | 100 to 1000 nM | Cc1ncoc1C(=O)N1CCCN(c2ncnc3[nH]ccc23)CC12CC2 [Example 192, (4-methyloxazol-5-yl)-[5-(7H-pyrrolo[2,3-d]pyrimidin-4-yl)-5,9-diazaspiro[2.6]nonan-9-yl]methanone]
14 | 100 to 1000 nM | < 100 nM |  | 100 to 1000 nM | COc1ccc(CC(=O)N2CCN(c3ncnc4[nH]ccc34)CC3(CC3)C2)cc1 [Example 261, 2-(4-methoxyphenyl)-1-[5-(7H-pyrrolo[2,3-d]pyrimidin-4-yl)-5,8-diazaspiro[2.6]nonan-8-yl]ethanone]
15 | 100 to 1000 nM | 100 to 1000 nM |  | 100 to 1000 nM | Cc1cc(C(=O)N2CCN(c3ncnc4[nH]ccc34)CC3(CC3)C2)no1 [Example 175, (5-methylisoxazol-3-yl)-[5-(7H-pyrrolo[2,3-d]pyrimidin-4-yl)-5,8-diazaspiro[2.6]nonan-8-yl]methanone]
16 | 100 to 1000 nM | < 100 nM |  | 100 to 1000 nM | O=C(c1cccc(Cl)c1)N1CCCN(c2ncnc3[nH]ccc23)CC12CC2 [Example 179, (3-chlorophenyl)-[5-(7H-pyrrolo[2,3-d]pyrimidin-4-yl)-5,9-diazaspiro[2.6]nonan-9-yl]methanone]
17 | 100 to 1000 nM | < 100 nM |  | < 100 nM | O=C(c1ccc(Cl)cc1)N1CCCN(c2ncnc3[nH]ccc23)CC12CC2 [Example 180, (4-chlorophenyl)-[5-(7H-pyrrolo[2,3-d]pyrimidin-4-yl)-5,9-diazaspiro[2.6]nonan-9-yl]methanone]
18 | 100 to 1000 nM | 100 to 1000 nM |  | 100 to 1000 nM | Cc1n[nH]c(CC(=O)N2CCN(c3ncnc4[nH]ccc34)CC3(CC3)C2)n1 [Example 250, 2-(3-methyl-1H-1,2,4-triazol-5-yl)-1-[5-(7H-pyrrolo[2,3-d]pyrimidin-4-yl)-5,8-diazaspiro[2.6]nonan-8-yl]ethanone]
19 | < 100 nM | < 100 nM |  | < 100 nM | O=C(CN1C(=O)CSC1=O)N1CCN(c2ncnc3[nH]ccc23)CC2(CC2)C1 [Example 79, 3-[2-oxo-2-[5-(7H-pyrrolo[2,3-d]pyrimidin-4-yl)-5,8-diazaspiro[2.6]nonan-8-yl]ethyl]thiazolidine-2,4-dione]
20 | 100 to 1000 nM | < 100 nM |  | 100 to 1000 nM | O=C(Cc1cncs1)N1CCN(c2ncnc3[nH]ccc23)CC2(CC2)C1 [Example 252, 1-[5-(7H-pyrrolo[2,3-d]pyrimidin-4-yl)-5,8-diazaspiro[2.6]nonan-8-yl]-2-thiazol-5-yl-ethanone]
21 | > 1000 nM | 100 to 1000 nM |  | 100 to 1000 nM | Cc1ncoc1C(=O)N1CCN(c2ncnc3[nH]ccc23)CC2(CC2)C1 [Example 191, (4-methyloxazol-5-yl)-[5-(7H-pyrrolo[2,3-d]pyrimidin-4-yl)-5,8-diazaspiro[2.6]nonan-8-yl]methanone]
